Usually Kd stands for the constant that tells how readily two partners part at equilibrium. One may read the IC50 as the concentration that inhibits the measured activity by half. For orientation: Ki means the dissociation constant of the complex between target and ligand, obtained from inhibition or displacement. A low value points to a stronger hold on the target.

Assay type in all cases: binding
Experiment [1] addresses T1, PilB (CtPilB), type IV pilus assembly ATPase (Chloracidobacterium thermophilum, UniProt G2LDI3).
T1 construct: gene Cabther_A1696
The experiment can be described thus: fluorescence enhancement titration of MANT-ATP with CtPilB.

Experiment [2] deals with T1, PilB (CtPilB), type IV pilus assembly ATPase. The experiment can be described thus: competitive displacement of fluorescent MANT-ATP.
For experiment [3] the target is unchanged. The experiment can be described thus: competitive displacement of fluorescent MANT-ATP (IC50 […]).

T1 sequence (G2LDI3 entry or part of it): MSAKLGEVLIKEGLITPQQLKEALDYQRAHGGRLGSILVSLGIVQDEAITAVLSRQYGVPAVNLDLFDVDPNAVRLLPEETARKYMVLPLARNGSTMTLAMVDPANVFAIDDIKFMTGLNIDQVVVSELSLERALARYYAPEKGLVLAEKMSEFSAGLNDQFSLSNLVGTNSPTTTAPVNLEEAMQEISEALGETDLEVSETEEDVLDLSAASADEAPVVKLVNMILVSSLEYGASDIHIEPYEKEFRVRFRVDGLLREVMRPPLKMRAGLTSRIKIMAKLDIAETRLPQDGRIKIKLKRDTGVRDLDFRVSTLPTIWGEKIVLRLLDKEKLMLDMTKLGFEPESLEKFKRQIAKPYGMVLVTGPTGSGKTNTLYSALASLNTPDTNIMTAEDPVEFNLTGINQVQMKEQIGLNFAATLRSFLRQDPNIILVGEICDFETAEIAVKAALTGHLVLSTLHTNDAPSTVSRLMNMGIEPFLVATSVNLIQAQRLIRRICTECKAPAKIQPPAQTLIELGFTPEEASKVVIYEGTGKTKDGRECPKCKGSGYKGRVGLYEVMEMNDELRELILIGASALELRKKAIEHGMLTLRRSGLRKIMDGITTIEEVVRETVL

`CNc1ccccc1C(=O)O[C@H]1[C@@H](O)[C@H](n2cnc3c(N)ncnc32)O[C@@H]1CO[P@@](=O)(O)O[P@](=O)(O)OP(=O)(O)O` [MANT-ATP]: in experiment [1], the Kd was 0.29 ± 0.01 µM.

On to `Nc1ncnc2c1ncn2[C@@H]1O[C@H](COP(=O)(O)OP(=O)(O)O)[C@@H](O)[C@H]1O` [ADP], for which the IC50 in experiment [2] worked out at 3.07 µM.

With `Nc1ncnc2c1ncn2[C@@H]1O[C@H](COP(=O)(O)OP(=O)(O)OP(=O)(O)O)[C@@H](O)[C@H]1O` [ATP], in experiment [3], affinity was put at a Ki of 2.2 µM.

For the origin of these results see paper PMC8546689, “High-Throughput Screen for Inhibitors of the Type IV Pilus Assembly ATPase PilB” (mSphere, 2021).
